Assay [1] concerns the target T1, Alpha-2A adrenergic receptor (Homo sapiens, UniProt P08913).
T1 sequence (P08913 whole entry): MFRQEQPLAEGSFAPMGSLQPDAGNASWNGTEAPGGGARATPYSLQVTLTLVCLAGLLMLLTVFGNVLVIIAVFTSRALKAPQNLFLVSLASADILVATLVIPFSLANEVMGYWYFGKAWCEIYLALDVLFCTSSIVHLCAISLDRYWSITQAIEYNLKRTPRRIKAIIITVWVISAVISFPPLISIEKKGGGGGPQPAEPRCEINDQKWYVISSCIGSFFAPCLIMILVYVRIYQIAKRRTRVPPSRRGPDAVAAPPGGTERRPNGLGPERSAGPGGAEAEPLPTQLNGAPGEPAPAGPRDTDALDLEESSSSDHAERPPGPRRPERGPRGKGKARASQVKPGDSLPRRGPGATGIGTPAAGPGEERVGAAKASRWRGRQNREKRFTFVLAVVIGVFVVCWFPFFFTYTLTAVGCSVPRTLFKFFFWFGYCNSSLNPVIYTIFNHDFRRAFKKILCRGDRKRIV

Assay [2] deals with T2, Alpha-1A adrenergic receptor (Homo sapiens, UniProt P35348).
T2 sequence (P35348 whole entry): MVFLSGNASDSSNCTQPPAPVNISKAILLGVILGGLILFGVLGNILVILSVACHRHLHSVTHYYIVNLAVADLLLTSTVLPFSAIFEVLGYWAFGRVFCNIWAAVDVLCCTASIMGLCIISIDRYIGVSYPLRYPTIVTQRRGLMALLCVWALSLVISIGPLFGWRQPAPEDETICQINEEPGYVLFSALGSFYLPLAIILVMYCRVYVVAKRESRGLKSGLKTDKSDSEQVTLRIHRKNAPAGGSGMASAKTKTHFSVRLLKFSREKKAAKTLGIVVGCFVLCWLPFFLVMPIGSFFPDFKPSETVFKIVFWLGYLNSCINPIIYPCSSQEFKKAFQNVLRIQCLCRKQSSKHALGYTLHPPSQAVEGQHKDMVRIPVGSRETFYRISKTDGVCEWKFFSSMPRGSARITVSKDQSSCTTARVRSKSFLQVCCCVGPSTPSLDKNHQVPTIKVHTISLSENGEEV
The assay is classed as functional, cell-based.

In assay [3] the target is Gamma-aminobutyric acid receptor subunit alpha-1/alpha-2/beta-2/gamma-2 (Homo sapiens, UniProt P14867+P18507+P47869+P47870). The assay is classed as protein-complex assay.
Sequence of Gamma-aminobutyric acid receptor subunit alpha-1/alpha-2/beta-2/gamma-2 (P14867 whole entry): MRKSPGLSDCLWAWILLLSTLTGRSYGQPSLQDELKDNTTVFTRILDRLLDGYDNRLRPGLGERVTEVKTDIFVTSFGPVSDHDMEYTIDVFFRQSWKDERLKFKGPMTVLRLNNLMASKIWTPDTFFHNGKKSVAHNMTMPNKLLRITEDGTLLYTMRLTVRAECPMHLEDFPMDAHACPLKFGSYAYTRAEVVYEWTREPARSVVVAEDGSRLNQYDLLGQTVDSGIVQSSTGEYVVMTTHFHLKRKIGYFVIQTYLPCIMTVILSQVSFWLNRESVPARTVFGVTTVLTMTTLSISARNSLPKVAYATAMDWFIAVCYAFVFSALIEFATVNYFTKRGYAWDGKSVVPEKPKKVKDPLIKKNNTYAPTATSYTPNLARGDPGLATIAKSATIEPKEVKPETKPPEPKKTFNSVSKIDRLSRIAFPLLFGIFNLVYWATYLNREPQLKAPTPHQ
Sequence of Gamma-aminobutyric acid receptor subunit alpha-1/alpha-2/beta-2/gamma-2 (P47870 whole entry): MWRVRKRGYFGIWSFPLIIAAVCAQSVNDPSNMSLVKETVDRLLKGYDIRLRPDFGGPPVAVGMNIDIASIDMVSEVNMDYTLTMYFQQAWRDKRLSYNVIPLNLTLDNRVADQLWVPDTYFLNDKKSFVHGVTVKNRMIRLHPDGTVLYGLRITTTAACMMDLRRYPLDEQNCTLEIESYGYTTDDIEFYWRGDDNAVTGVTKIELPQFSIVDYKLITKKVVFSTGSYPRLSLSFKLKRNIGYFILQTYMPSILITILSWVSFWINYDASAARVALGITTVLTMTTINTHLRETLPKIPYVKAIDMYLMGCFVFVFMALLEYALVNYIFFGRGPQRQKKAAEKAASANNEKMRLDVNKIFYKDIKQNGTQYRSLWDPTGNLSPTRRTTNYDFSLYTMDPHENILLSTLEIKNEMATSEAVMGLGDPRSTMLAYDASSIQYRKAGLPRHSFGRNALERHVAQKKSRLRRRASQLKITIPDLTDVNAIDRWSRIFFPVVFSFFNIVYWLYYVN
Sequence of Gamma-aminobutyric acid receptor subunit alpha-1/alpha-2/beta-2/gamma-2 (P18507 whole entry): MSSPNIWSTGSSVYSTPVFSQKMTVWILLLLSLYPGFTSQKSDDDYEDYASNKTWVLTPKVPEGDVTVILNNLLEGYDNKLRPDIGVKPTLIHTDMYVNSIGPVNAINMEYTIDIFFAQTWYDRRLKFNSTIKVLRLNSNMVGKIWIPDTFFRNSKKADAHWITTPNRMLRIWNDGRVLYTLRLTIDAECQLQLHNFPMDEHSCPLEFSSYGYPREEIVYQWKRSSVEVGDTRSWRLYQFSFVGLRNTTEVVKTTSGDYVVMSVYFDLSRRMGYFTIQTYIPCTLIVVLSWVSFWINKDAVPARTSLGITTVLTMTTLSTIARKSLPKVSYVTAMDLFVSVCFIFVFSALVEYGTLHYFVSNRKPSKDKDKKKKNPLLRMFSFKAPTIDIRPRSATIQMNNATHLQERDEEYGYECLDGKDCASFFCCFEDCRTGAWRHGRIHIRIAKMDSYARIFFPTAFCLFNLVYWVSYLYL
Sequence of Gamma-aminobutyric acid receptor subunit alpha-1/alpha-2/beta-2/gamma-2 (P47869 whole entry): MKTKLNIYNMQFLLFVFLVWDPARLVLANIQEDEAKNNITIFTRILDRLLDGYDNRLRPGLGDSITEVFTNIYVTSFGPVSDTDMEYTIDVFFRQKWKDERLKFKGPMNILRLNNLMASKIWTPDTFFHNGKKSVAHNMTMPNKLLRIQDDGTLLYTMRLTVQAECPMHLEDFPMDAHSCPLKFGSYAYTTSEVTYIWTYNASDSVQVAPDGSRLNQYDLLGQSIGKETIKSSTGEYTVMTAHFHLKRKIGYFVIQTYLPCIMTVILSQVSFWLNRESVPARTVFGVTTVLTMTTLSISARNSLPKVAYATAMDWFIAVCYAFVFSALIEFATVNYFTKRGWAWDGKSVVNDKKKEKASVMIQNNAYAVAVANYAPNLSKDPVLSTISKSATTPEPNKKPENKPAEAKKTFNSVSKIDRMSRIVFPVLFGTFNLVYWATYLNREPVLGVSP
Assay [4] addresses Sodium-dependent dopamine transporter (Homo sapiens, UniProt Q01959).
Assay [5] concerns the target Kappa-type opioid receptor (Homo sapiens, UniProt P41145).
Assay [6] has as its target T3, Neuropeptide Y receptor type 1 (Homo sapiens, UniProt P25929).
T3 sequence (P25929 whole entry): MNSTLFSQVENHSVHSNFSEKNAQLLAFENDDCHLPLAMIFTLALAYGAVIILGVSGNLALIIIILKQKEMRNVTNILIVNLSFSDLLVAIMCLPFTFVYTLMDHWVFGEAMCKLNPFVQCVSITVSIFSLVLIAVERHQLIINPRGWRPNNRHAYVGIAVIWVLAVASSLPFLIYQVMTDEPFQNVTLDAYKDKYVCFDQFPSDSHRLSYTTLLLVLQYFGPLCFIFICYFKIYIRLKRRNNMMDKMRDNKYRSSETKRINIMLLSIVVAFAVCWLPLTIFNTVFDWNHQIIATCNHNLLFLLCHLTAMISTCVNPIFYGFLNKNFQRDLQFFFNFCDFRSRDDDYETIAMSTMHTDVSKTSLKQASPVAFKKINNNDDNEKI

The target in another assay is T4, Estrogen receptor (Homo sapiens, UniProt P03372).
T4 sequence (P03372 whole entry): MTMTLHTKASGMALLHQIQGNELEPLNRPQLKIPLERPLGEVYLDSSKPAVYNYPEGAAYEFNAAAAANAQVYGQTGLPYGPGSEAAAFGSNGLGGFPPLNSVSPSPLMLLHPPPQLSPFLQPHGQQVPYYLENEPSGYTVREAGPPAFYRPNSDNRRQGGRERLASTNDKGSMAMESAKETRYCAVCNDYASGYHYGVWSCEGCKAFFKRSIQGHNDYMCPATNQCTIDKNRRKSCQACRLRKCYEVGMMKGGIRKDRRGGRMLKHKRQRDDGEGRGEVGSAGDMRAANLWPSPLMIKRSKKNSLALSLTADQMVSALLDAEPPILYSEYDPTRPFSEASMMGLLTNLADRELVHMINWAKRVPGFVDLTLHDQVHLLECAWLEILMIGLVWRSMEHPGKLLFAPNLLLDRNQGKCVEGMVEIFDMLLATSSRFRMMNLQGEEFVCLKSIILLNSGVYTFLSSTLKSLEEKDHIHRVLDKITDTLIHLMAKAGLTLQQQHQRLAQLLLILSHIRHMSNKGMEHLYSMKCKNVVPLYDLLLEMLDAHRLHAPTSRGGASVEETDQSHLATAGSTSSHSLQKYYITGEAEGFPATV

In assay [7] the target is T5, Alpha-2B adrenergic receptor (Homo sapiens, UniProt P18089).
T5 sequence (P18089 whole entry): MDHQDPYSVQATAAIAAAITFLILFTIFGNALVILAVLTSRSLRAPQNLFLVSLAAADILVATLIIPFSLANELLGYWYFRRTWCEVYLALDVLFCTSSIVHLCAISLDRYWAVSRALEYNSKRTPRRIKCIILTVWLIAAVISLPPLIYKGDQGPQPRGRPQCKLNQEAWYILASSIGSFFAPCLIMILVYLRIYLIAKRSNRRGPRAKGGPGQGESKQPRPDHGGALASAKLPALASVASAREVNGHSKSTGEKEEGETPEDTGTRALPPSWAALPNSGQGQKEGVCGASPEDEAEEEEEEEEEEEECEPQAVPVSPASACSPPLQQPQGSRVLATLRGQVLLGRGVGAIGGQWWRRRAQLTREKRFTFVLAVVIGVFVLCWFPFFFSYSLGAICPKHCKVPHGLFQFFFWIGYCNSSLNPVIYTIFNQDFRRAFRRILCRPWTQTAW
Also: assay procedure not described here.

Sequence of Sodium-dependent dopamine transporter (Q01959 whole entry): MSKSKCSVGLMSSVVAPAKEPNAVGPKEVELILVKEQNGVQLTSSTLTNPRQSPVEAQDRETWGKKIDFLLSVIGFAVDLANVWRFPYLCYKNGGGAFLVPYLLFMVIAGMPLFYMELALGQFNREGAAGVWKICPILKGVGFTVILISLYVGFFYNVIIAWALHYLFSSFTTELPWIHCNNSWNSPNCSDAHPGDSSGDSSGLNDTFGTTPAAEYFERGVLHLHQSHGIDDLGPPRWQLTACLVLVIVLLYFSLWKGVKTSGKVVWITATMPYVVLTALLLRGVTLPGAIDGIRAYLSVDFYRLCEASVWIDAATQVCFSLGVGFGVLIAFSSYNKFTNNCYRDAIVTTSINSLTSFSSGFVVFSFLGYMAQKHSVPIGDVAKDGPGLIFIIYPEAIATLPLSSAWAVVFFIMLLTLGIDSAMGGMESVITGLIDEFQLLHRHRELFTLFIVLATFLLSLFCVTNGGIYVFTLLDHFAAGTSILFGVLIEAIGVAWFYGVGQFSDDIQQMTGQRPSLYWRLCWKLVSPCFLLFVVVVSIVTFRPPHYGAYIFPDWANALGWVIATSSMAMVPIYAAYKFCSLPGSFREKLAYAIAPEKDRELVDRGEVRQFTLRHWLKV
Sequence of Kappa-type opioid receptor (P41145 whole entry): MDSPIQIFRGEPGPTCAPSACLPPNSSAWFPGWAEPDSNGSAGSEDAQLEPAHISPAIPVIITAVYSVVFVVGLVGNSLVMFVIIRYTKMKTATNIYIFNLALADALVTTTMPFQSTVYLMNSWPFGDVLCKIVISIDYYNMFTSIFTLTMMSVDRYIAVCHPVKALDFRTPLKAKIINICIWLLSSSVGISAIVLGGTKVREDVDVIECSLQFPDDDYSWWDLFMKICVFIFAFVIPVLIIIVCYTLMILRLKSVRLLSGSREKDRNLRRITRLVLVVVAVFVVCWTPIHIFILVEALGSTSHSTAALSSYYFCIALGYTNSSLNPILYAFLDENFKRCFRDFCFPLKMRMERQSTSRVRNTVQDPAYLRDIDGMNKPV

Consider `CCC(=O)c1c(O)cc(O)cc1O` [FLOPROPIONE], for which the half-maximal activity concentration (AC50) in assay [1], in assay [2], in assay [3] and in assay [4] was over 30 µM in each case.

With `O=C1CC[C@@]2(O)[C@H]3Cc4ccc(O)c5c4[C@@]2(CCN3CC2CC2)[C@H]1O5` [NALTREXONE], the AC50 in assay [1], in assay [2], in assay [3] and in assay [4] was over 30 µM each time.

Take `CN(C)C(=O)Oc1ccc[n+](C)c1` [PYRIDOSTIGMINE]: the AC50 in assay [1], in assay [2], in assay [3] and in assay [4] was over 30 µM throughout.

On to `CC(C)OC(=O)[C@H](C)N[P@](=O)(OC[C@H]1O[C@@H](n2ccc(=O)[nH]c2=O)[C@](C)(F)[C@@H]1O)Oc1ccccc1` [SOFOSBUVIR], for which the AC50 in assay [1], in assay [2], in assay [3] and in assay [4] was over 30 µM each time.

Turning to `CC(N/C(=N\C#N)Nc1ccncc1)C(C)(C)C` (stereo unspecified) [PINACIDIL ANHYDROUS], the half-maximal activity concentration (AC50) in assay [1], in assay [2], in assay [3] and in assay [4] was over 30 µM in each case.

Turning to `COc1cc2c(cc1OC)C(=O)C(CC1CCN(Cc3ccccc3)CC1)C2` (stereo unspecified) [DONEPEZIL], the half-maximal activity concentration (AC50) (usually the concentration at which the activity in the assay is half-maximal) in assay [1] was 15.9 µM; in assay [5] it was over 10 µM; in assay [6], over 30 µM; in assay [3], over 30 µM; on Estrogen receptor it was over 30 µM; in assay [7], over 10 µM. In addition, the AC50 in assay [4] came to 9.78 µM.

As to `CCOC(=O)c1ccc(O)cc1` [ETHYLPARABEN], the AC50 in assay [1], in assay [2], in assay [3] and in assay [4] was over 30 µM throughout.

Consider `CCO/N=C(\C(=O)N[C@@H]1C(=O)N2C(C(=O)[O-])=C(Sc3nc(-c4cc[n+](C)cc4)cs3)CS[C@H]12)c1nsc(N)n1` [CEFTAROLINE], for which the half-maximal activity concentration (AC50) in assay [1], in assay [2], in assay [3] and in assay [4] was over 30 µM throughout.

For the molecule `C#C[C@]1(O)CC[C@H]2[C@@H]3CCC4=CC(=O)CC[C@@H]4[C@H]3CC[C@@]21CC` [LEVONORGESTREL], the AC50 in assay [1], in assay [2], in assay [3] and in assay [4] was over 30 µM in each case.

Regarding `CC(=O)Oc1c(C)cc(OCC(O)CNC(C)C)c(C)c1C` (stereo unspecified) [METIPRANOLOL], the AC50 in assay [1], in assay [2], in assay [3] and in assay [4] was over 30 µM throughout.

As for `Sc1ncnc2nc[nH]c12` [MERCAPTOPURINE ANHYDROUS], the AC50 in assay [1], in assay [2], in assay [3] and in assay [4] was over 30 µM in each case.

Consider `CC(O)CO` (stereo unspecified) [PROPYLENE GLYCOL], for which the AC50 in assay [1], in assay [2], in assay [3] and in assay [4] was over 30 µM each time.

Turning to `OCCN1CCN(CCCN2c3ccccc3C=Cc3ccccc32)CC1` [OPIPRAMOL], the AC50 in assay [1] is 9.6 µM; in assay [5], over 30 µM; in assay [2] it was 1.07 µM; in assay [6], over 30 µM; at Estrogen receptor it was over 30 µM; in assay [7] it was 10 µM. Moreover, the activity in assay [4] was half-maximal at 10.9 µM (AC50).

`Cc1cc(O)cc(C)c1Cl` [CHLOROXYLENOL]: the concentration at half-maximal activity (AC50) in assay [1], in assay [3] and in assay [4] was over 30 µM throughout.

With `Cc1c(-c2ccccc2)oc2c(C(=O)OCCN3CCCCC3)cccc2c1=O` [FLAVOXATE], the AC50 in assay [1] is 13.9 µM; in assay [2], 6.29 µM; in assay [3] it was over 30 µM; in assay [4], over 30 µM.

`C[N+]1(C)[C@@H]2C[C@@H](OC(=O)[C@H](CO)c3ccccc3)C[C@H]1[C@@H]1O[C@@H]12` [METHSCOPOLAMINE]: the AC50 in assay [1], in assay [2], in assay [3] and in assay [4] was over 30 µM in each case.

Take `OC[C@@H](O)[C@@H](O)[C@H](O)[C@H](O)CO` [MANNITOL]: the concentration at half-maximal activity (AC50) in assay [1], in assay [2], in assay [3] and in assay [4] was over 30 µM throughout.

Consider `CN(C)CCCN1c2ccccc2CCc2ccc(Cl)cc21` [CLOMIPRAMINE], for which the AC50 in assay [1] was 3.63 µM; in assay [2], 0.0154 µM; in assay [3], over 30 µM; in assay [4] it was 4.82 µM.

In the case of `CCOC(=O)N[C@@H]1CC[C@@H]2[C@@H](C1)C[C@H]1C(=O)O[C@H](C)[C@H]1[C@H]2/C=C/c1ccc(-c2cccc(F)c2)cn1` [VORAPAXAR], the AC50 in assay [1], in assay [2], in assay [3] and in assay [4] was over 30 µM throughout.

Consider `CC1(C)O[C@@H]2C[C@H]3[C@@H]4C[C@H](F)C5=CC(=O)CC[C@]5(C)[C@H]4[C@@H](O)C[C@]3(C)[C@]2(C(=O)CO)O1` [FLURANDRENOLIDE], for which the AC50 in assay [1], in assay [2], in assay [3] and in assay [4] was over 30 µM in each case.

`O=C1[C@H](CC[C@H](O)c2ccc(F)cc2)[C@@H](c2ccc(O)cc2)N1c1ccc(F)cc1` [EZETIMIBE]: the AC50 in assay [1] was over 30 µM; in assay [3], over 10 µM; in assay [4] it was 19.5 µM.

With `C[N+](C)(C)CCCCCCCCCC[N+](C)(C)C` [DECAMETHONIUM], the AC50 in assay [1], in assay [2], in assay [3] and in assay [4] was over 30 µM in each case.

For `O=C(COc1ccc(Cl)cc1)N1CCN(Cc2ccc3c(c2)OCO3)CC1` [FIPEXIDE], the AC50 was 11.1 µM in assay [1], 13.3 µM in assay [2], over 30 µM in assay [3] and 12.9 µM in assay [4].

For the molecule `O=C(NC[C@H]1CN(c2ccc(N3CCOCC3=O)cc2)C(=O)O1)c1ccc(Cl)s1` [RIVAROXABAN], the AC50 in assay [1] is over 30 µM; in assay [5] it was over 30 µM; in assay [2] it was over 3 µM; in assay [7], over 30 µM; in assay [4], over 30 µM.

The values are drawn from ChEMBL document CHEMBL5291721, “A preclinical secondary pharmacology resource illuminates target-adverse drug reaction associations of marketed drugs” (Nat Commun, 2023).
